# Read-outs that look alike come from different tables or passages of the source.
# Assays:
# [1] = test system: asynchronous 3D7-A10 parasite cultures; assay: Standard 72-h exposure asexual blood stage susceptibility assay (IC50^72h); format: cell-based, Plasmodium falciparum; conditions: Plasmodium falciparum, 3D7, 72 h, read-out: Overall (72hr assay) Mean IC50 (IC50^72h)
# [2] = test system: Plasmodium falciparum 3D7-A10 parasites; assay: Stage specificity assay (8-h exposure of synchronized stages, IC50^8h); format: cell-based; conditions: for IC50: Plasmodium falciparum
# [3] = test system: 3D7-MR4 trophozoite parasite-infected RBCs; assay: Metabolomic profiling (hydrophilic metabolite changes, UHPLC-MS); format: cell-based, Plasmodium falciparum
structure (smiles),measurement,setting,value
Cl.c1ccc2c(NCCCCCCNc3c4c(nc5ccccc35)CCCC4)c3c(nc2c1)CCCC3 [MMV019555],IC50,[1],33.3 nM
same,Ratio lowest IC50 8hr/IC50 72hr,[2]; 3D7-A10,2.4
same,IC50,"[2]; 3D7, read-out: Early rings Mean IC50 (IC50^8h)",755 nM
same,IC50,"[2]; 3D7, read-out: Early trophozoites Mean IC50 (IC50^8h)",81.4 nM
same,IC50,"[2]; 3D7, read-out: Late rings Mean IC50 (IC50^8h)",788 nM
same,IC50,"[2]; 3D7, read-out: Late trophozoites Mean IC50 (IC50^8h)",110 nM
same,IC50,"[2]; 3D7, read-out: Schizonts Mean IC50 (IC50^8h)",349 nM
same,Stage of peak activity (Figure 6),[2]; period when the parasite was most susceptible (lowest IC50^8h),trophozoites
same,Peak Activity (Table S1),[2]; stage(s) with the lowest IC50^8h,Trophs
same,peptide levels (hemoglobin catabolism signature),"[3]; 10 × IC50^72h, 2.5 hr, trophozoites",decreased peptide levels
same,Log2(fold changes) 3-phosphoglycerate,"[3]; metabolite 3-phosphoglycerate, log2 fold change",-0.7704
same,Log2(fold changes) 4-Pyridoxic acid,"[3]; metabolite 4-Pyridoxic acid, log2 fold change",-0.0064
same,Log2(fold changes) 4-aminobutyrate,"[3]; metabolite 4-aminobutyrate, log2 fold change",-0.0746
same,Log2(fold changes) 4-phosphopantetheine,"[3]; metabolite 4-phosphopantetheine, log2 fold change",0.0000
same,Log2(fold changes) 4-phosphopantothenate,"[3]; metabolite 4-phosphopantothenate, log2 fold change",-0.0563
same,Log2(fold changes) 5-aminopentanoic acid,"[3]; metabolite 5-aminopentanoic acid, log2 fold change",0.0000
same,Log2(fold changes) 5-methyl-THF,"[3]; metabolite 5-methyl-THF, log2 fold change",0.0000
same,Log2(fold changes) 5-phosphoribosyl-1-pyrophosphate,"[3]; metabolite 5-phosphoribosyl-1-pyrophosphate, log2 fold change",0.0000
same,Log2(fold changes) 6-phospho-D-gluconate,"[3]; metabolite 6-phospho-D-gluconate, log2 fold change",-0.1925
same,Log2(fold change) HVDD,[3]; metabolite HVDD,-3.3896
same,Log2(fold change) Hydroxyisocaproic acid,[3]; metabolite Hydroxyisocaproic acid,0.0000
same,Log2(fold change) IDP,[3]; metabolite IDP,0.0000
same,Log2(fold change) IMP,[3]; metabolite IMP,0.2158
same,Log2(fold change) Inositol,[3]; metabolite Inositol,0.0000
same,Log2(fold change) Isopentyl-PP,[3]; metabolite Isopentyl-PP,0.0000
same,Log2(fold change) L-arginino-succinate,[3]; metabolite L-arginino-succinate,2.1877
same,Log2(fold change) LD,[3]; metabolite LD,-0.1309
same,Log2(fold change) Myristoyl/tetradecanoyl-CoA,[3]; metabolite Myristoyl/tetradecanoyl-CoA,0.0000
same,Log2(fold change) N-Acetyl-L-alanine,[3]; metabolite N-Acetyl-L-alanine,-0.6973
same,Log2(fold change) N-acetyl-L-ornithine,[3]; metabolite N-acetyl-L-ornithine,-2.1230
same,Log2(fold change) N-acetyl-glucosamine-1/6-phosphate,[3]; metabolite N-acetyl-glucosamine-1/6-phosphate,-0.2838
same,Log2(fold change) N-acetyl-glutamate,[3]; metabolite N-acetyl-glutamate,0.3598
same,Log2(fold change) N-acetyl-glutamine,[3]; metabolite N-acetyl-glutamine,-3.0977
same,Log2(fold change) N-carbamoyl-L-aspartate,[3]; metabolite N-carbamoyl-L-aspartate,-1.7500
same,Log2(fold change) NAD+,[3]; metabolite NAD+,-0.0354
same,Log2(fold change) NADH,[3]; metabolite NADH,0.0000
same,Log2(fold change) NADP+,[3]; metabolite NADP+,0.1571
same,Log2(fold change) NADPH,[3]; metabolite NADPH,0.0000
same,Log2(fold change) O-acetyl-L-serine,[3]; metabolite O-acetyl-L-serine,0.0000
same,Log2(fold change) Octoluse 8/1P,[3]; metabolite Octoluse 8/1P,0.0000
same,Log2(fold change) Octoluse Bisphosphate,[3]; metabolite Octoluse Bisphosphate,0.2948
same,Log2(fold change) PD,[3]; metabolite PD,-3.7912
same,Log2(fold change) PE,[3]; metabolite PE,-2.1499
same,Log2(fold change) PEE,[3]; metabolite PEE,-2.7511
same,Log2(fold change) PEEK,[3]; metabolite PEEK,-0.8070
same,Log2(fold change) PVNF,[3]; metabolite PVNF,-5.1804
same,Log2(fold change) Pyroglutamic acid,[3]; metabolite Pyroglutamic acid,0.0000
same,Log2(fold change) Pyrophosphate,[3]; metabolite Pyrophosphate,0.0000
same,Log2(fold change) Ribose-5-phosphate,[3]; metabolite Ribose-5-phosphate,0.0000
same,Log2(fold change) S-adenosyl-L-homocysteine,[3]; metabolite S-adenosyl-L-homocysteine,-0.6013
same,Log2(fold change) S-adenosyl-L-methioninamine,[3]; metabolite S-adenosyl-L-methioninamine,0.0000
same,Log2(fold change) S-adenosyl-L-methionine,[3]; metabolite S-adenosyl-L-methionine,0.0000
same,Log2(fold change) S-methyl-5'-thioadenosine,[3]; metabolite S-methyl-5'-thioadenosine,0.0000
same,Log2(fold change) SD,[3]; metabolite SD,-1.1672
same,Log2(fold change) SDL,[3]; metabolite SDL,-3.6117
same,Log2(fold change) SID,[3]; metabolite SID,-6.9124
same,Log2(fold change) Sedoheptulose bisphosphate,[3]; metabolite Sedoheptulose bisphosphate,0.7315
same,Log2(fold change) Thiamine pyrophosphate,[3]; metabolite Thiamine pyrophosphate,0.0000
same,Log2(fold changes) UDP-D-glucose,"[3]; metabolite UDP-D-glucose, log2 fold change",0.2602
same,Log2(fold changes) UDP-D-glucuronate,"[3]; metabolite UDP-D-glucuronate, log2 fold change",0.1434
same,Log2(fold changes) UDP-N-acetyl-glucosamine,"[3]; metabolite UDP-N-acetyl-glucosamine, log2 fold change",0.1146
same,Log2(fold changes) UDP,"[3]; metabolite UDP, log2 fold change",0.8739
same,Log2(fold changes) UMP,"[3]; metabolite UMP, log2 fold change",-0.0547
same,Log2(fold changes) UTP,"[3]; metabolite UTP, log2 fold change",-0.1611
same,Log2(fold change) hydroxyphenylpyruvate,[3]; metabolite hydroxyphenylpyruvate,0.0000
same,Log2(fold change) hydroxyproline/Aminolevulinate,[3]; metabolite hydroxyproline/Aminolevulinate,0.0631
same,Log2(fold change) hypoxanthine,[3]; metabolite hypoxanthine,0.0000
same,Log2(fold change) indole,[3]; metabolite indole,0.0000
same,Log2(fold change) inosine,[3]; metabolite inosine,-0.4951
same,Log2(fold change) isoleucine,[3]; metabolite isoleucine,0.1119
same,Log2(fold change) lactate,[3]; metabolite lactate,0.0000
same,Log2(fold change) leucine,[3]; metabolite leucine,-0.0578
same,Log2(fold change) lysine,[3]; metabolite lysine,0.0000
same,Log2(fold change) malate,[3]; metabolite malate,-0.8281
same,Log2(fold change) maleic acid,[3]; metabolite maleic acid,-0.8184
same,Log2(fold change) methionine,[3]; metabolite methionine,0.4693
same,Log2(fold change) myo-inositol,[3]; metabolite myo-inositol,0.0000
same,Log2(fold change) nicotinamide mononucleotide,[3]; metabolite nicotinamide mononucleotide,0.0000
same,Log2(fold change) nicotinate,[3]; metabolite nicotinate,-0.1129
same,Log2(fold change) ornithine,[3]; metabolite ornithine,0.0000
same,Log2(fold change) orotate,[3]; metabolite orotate,-0.7791
same,Log2(fold change) orotidine-5'-phosphate,[3]; metabolite orotidine-5'-phosphate,-1.4071
same,Log2(fold change) oxaloacetate,[3]; metabolite oxaloacetate,0.0000
same,Log2(fold change) p-aminobenzoate,[3]; metabolite p-aminobenzoate,0.0000
same,Log2(fold change) p-hydroxybenzoate,[3]; metabolite p-hydroxybenzoate,0.0000
same,Log2(fold change) pantothenate,[3]; metabolite pantothenate,0.0969
same,Log2(fold change) phenylalanine,[3]; metabolite phenylalanine,-0.1076
same,Log2(fold change) phenylpyruvate,[3]; metabolite phenylpyruvate,0.0000
same,Log2(fold change) phosphoenolpyruvate,[3]; metabolite phosphoenolpyruvate,-0.6196
same,Log2(fold change) prephenate,[3]; metabolite prephenate,0.0000
same,Log2(fold change) proline,[3]; metabolite proline,-0.3102
same,Log2(fold change) pyridoxine,[3]; metabolite pyridoxine,0.0000
same,Log2(fold change) pyruvate,[3]; metabolite pyruvate,-0.3424
same,Log2(fold change) riboflavin,[3]; metabolite riboflavin,0.1087
same,Log2(fold change) ribose,[3]; metabolite ribose,0.0000
same,Log2(fold change) ribose-phosphate,[3]; metabolite ribose-phosphate,-0.8253
same,Log2(fold change) ribulose-5-phosphate,[3]; metabolite ribulose-5-phosphate,-0.7229
same,Log2(fold change) serine,[3]; metabolite serine,0.0219
same,Log2(fold change) sn-glycerol-3-phosphate,[3]; metabolite sn-glycerol-3-phosphate,-0.8632
same,Log2(fold change) succinate/Methylmalonic acid,[3]; metabolite succinate/Methylmalonic acid,0.2169
same,Log2(fold change) succinyl-CoA/methylmalonyl-CoA,[3]; metabolite succinyl-CoA/methylmalonyl-CoA,0.0000
same,Log2(fold change) taurine,[3]; metabolite taurine,0.0000
same,Log2(fold change) thiamine,[3]; metabolite thiamine,-0.8248
same,Log2(fold change) threonine/homoserine,[3]; metabolite threonine/homoserine,-0.3688
same,Log2(fold change) thymidine,[3]; metabolite thymidine,0.0000
same,Log2(fold changes) thymine,"[3]; metabolite thymine, log2 fold change",0.0000
same,Log2(fold changes) trehalose-6-Phosphate,"[3]; metabolite trehalose-6-Phosphate, log2 fold change",0.0000
same,Log2(fold changes) tryptophan,"[3]; metabolite tryptophan, log2 fold change",-0.0448
same,Log2(fold changes) tyrosine,"[3]; metabolite tyrosine, log2 fold change",0.2358
same,Log2(fold changes) uridine,"[3]; metabolite uridine, log2 fold change",0.0000
